Data reported in the NIST ThermoML archive (doi:10.1021/je060271a).

Conditions: 283.14 K, Liquid, Vibrating tube method

CCCCCCC(=O)OCC(COC(=O)CCCCCC)(COC(=O)CCCCCC)COC(=O)CCCCCC [pentaerythritol tetraheptanoate]
Conditions	mass density [kg/m3]
23079 kPa	998.5
23110 kPa	998.5
23147 kPa	998.6
23178 kPa	998.6
23209 kPa	998.6
23246 kPa	998.5
23277 kPa	998.7
23308 kPa	998.6
23339 kPa	998.7
23377 kPa	998.7
23410 kPa	998.6
23442 kPa	998.7
23480 kPa	998.8
23512 kPa	998.7
23543 kPa	998.7
23576 kPa	998.8
23614 kPa	998.8
23646 kPa	998.8
23685 kPa	998.8
23717 kPa	998.8
23749 kPa	998.9
23788 kPa	998.8
23821 kPa	998.9
23854 kPa	999
23888 kPa	998.9
23927 kPa	998.9
23960 kPa	998.9
23999 kPa	998.9
24032 kPa	998.9
24066 kPa	999.1
24099 kPa	998.9
24140 kPa	999.1
24173 kPa	999.1
24213 kPa	999
24247 kPa	999
24281 kPa	999.1
24324 kPa	999.2
24358 kPa	999.1
24392 kPa	999.2
24426 kPa	999.3
24468 kPa	999.3
24502 kPa	999.3
24543 kPa	999.3
24578 kPa	999.3
24613 kPa	999.2
24655 kPa	999.4
24726 kPa	999.4
24769 kPa	999.4
24841 kPa	999.4
24878 kPa	999.5
24921 kPa	999.5
24958 kPa	999.4
24994 kPa	999.5
25038 kPa	999.6
25075 kPa	999.6
25112 kPa	999.6
25155 kPa	999.5
25192 kPa	999.6
25230 kPa	999.6
25277 kPa	999.6
25314 kPa	999.6
25352 kPa	999.6
25389 kPa	999.7
25427 kPa	999.8
25472 kPa	999.8
25511 kPa	999.8
25549 kPa	999.8
25595 kPa	999.7
25633 kPa	999.9
25672 kPa	999.8
25718 kPa	1000
25758 kPa	1000
25799 kPa	999.9
25839 kPa	999.8
25886 kPa	999.9
25918 kPa	1000.1
26265 kPa	1000.1
26414 kPa	1000.4
26496 kPa	1000.3
26525 kPa	1000.3
26556 kPa	1000.2
26581 kPa	1000.3
26612 kPa	1000.3
26638 kPa	1000.3
26665 kPa	1000.4
26696 kPa	1000.4
26722 kPa	1000.4
26776 kPa	1000.3
26950 kPa	1000.5
27004 kPa	1000.4
27030 kPa	1000.6
27063 kPa	1000.7
27090 kPa	1000.6
27291 kPa	1000.7
27380 kPa	1000.7
27414 kPa	1000.6
27442 kPa	1000.8
27476 kPa	1000.8
27506 kPa	1000.7
27536 kPa	1000.8
27566 kPa	1000.9
27704 kPa	1000.9
27724 kPa	1000.9
27744 kPa	1000.9
27768 kPa	1000.9
27787 kPa	1001
27808 kPa	1000.9
27832 kPa	1000.9
27851 kPa	1001
27872 kPa	1001
27980 kPa	1001
28001 kPa	1001
